Experimental data from patent publication US20260035389A1, “TETRAHYDROPYRIDOPYRIMIDINE PAN-KRAS INHIBITORS” (Mirati Therapeutics, Inc., priority 2020, published 2026).

Assays:
[1] = molecular target: KRas^G12V (Homo sapiens, UniProt P01116, G12V); experiment: KRas binding assay (TR-FRET displacement)
[2] = system: H727 cells; experiment: Cisbio HTRF Advanced pERK assay; type: cell-based; settings: 3 hrs, read-out: Inhibition (HTRF IC50 nM) of KRas-mediated Phosphorylation of ERK, H727
[3] = system: ASPC1 cells; experiment: Cisbio HTRF Advanced pERK assay; type: cell-based; settings: AsPC-1 cells, 3 hrs, read-out: Inhibition (HTRF IC50 nM) of KRas-mediated Phosphorylation of ERK, AsPC-1
[4] = system: MKN1 cells; experiment: Cisbio HTRF Advanced pERK assay; type: cell-based; settings: 3 hour, read-out: Inhibition (HTRF IC50 nM) of KRas-mediated Phosphorylation of ERK, MKN1
Experimental: (§1) Cisbio HTRF Advanced pERK Assay Catalog #64AERPEH • Cells: MKN1, PSN1 • Procedure: • Day 1: Seed 6,000 cells/well −25 μl/well in 384-well white solid bottom plate; RPM1_10% FBS.

[5] = molecular target: KRas^G12R (Homo sapiens, UniProt P01116, G12R); experiment: KRas binding assay (TR-FRET displacement)
[6] = system: PSN1 cells; experiment: Cisbio HTRF Advanced pERK assay; type: cell-based; settings: 3 hour, read-out: Inhibition (HTRF IC50 nM) of KRas-mediated Phosphorylation of ERK, PSN1
Experimental: as §1

[7] = molecular target: KRas^G13D (Homo sapiens, UniProt P01116, G13D); experiment: biochemical
[8] = molecular target: KRas^Q61H (Homo sapiens, UniProt P01116, Q61H); experiment: biochemical
Sequence of KRas^Q61H (P01116 1-169 isoform P01116-2 Q61H): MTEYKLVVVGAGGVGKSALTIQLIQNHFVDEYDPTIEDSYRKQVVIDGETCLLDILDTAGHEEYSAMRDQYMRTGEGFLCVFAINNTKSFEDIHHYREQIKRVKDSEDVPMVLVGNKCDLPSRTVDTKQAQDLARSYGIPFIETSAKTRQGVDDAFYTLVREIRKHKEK

Sequence of KRas^G12V (P01116 1-169 isoform P01116-2 G12V): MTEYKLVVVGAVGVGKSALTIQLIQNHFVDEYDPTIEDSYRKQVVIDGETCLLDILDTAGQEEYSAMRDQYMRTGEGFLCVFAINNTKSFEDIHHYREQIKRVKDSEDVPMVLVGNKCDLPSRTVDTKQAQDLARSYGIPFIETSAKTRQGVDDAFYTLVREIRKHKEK
Sequence of KRas^G12R (P01116 1-169 isoform P01116-2 G12R): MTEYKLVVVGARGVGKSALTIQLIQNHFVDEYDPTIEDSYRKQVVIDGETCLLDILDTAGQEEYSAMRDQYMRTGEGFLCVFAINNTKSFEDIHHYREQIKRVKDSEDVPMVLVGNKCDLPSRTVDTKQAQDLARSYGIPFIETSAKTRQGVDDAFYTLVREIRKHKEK
Sequence of KRas^G13D (P01116 1-169 isoform P01116-2 G13D): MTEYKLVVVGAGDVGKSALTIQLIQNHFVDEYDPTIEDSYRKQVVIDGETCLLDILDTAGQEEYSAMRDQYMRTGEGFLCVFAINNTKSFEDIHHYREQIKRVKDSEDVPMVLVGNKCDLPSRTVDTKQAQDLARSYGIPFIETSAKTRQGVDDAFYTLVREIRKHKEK

Row | IC50 [1] [nM] | IC50 [2] [nM] | IC50 [3] [nM] | IC50 [4] [nM] | SMILES | also measured
1 | ≤ 2 | – | – | – | CCc1c(F)ccc2cc(O)cc(N3CCc4c(nc(OC[C@@]56CCCN5C[C@H](F)C6)nc4N4CC5CC(O)CC4C5)C3)c12 (stereo partly drawn) [Example 35, 6-(7-(8-ethyl-7-fluoro-3-hydroxynaphthalen-1-yl)-2-(((2R,7aS)-2-fluorohexahydro-1H-pyrrolizin-7a-yl)methoxy)-5,6,7,8-tetrahydropyrido[3,4-d]pyrimidin-4-yl)-6-azabicyclo[3.2.1]octan-3-ol] | –
2 | – | 1170 | 1740 | 148 | Oc1cc(N2CCc3c(nc(OC[C@@]45CCCN4C[C@H](F)C5)nc3N3CC4CC(O)CC3C4)C2)c2c(Br)c(F)ccc2c1 (single isomer, unassigned) [Example 213] | –
3 | – | – | – | – | CCc1c(F)ccc2cc(O)cc(N3CCc4c(nc(OC[C@@]56CCCN5C[C@H](F)C6)nc4N4CCOCC(C)(O)C4)C3)c12 (stereo partly drawn) [Example 20, 4-(7-(8-ethyl-7-fluoro-3-hydroxynaphthalen-1-yl)-2-(((2R,7aS)-2-fluorohexahydro-1H-pyrrolizin-7a-yl)methoxy)-5,6,7,8-tetrahydropyrido[3,4-d]pyrimidin-4-yl)-6-methyl-1,4-oxazepan-6-ol] | IC50 [5]: ≤ 2 nM
4 | ≤ 2 | – | – | – | CCc1c(F)ccc2cc(O)cc(N3CCc4c(nc(OC[C@@]56CCCN5C[C@H](F)C6)nc4N4CCCn5nc(C(=O)N6CCCC6)cc5C4)C3)c12 [Example 191, (5-(7-(8-ethyl-7-fluoro-3-hydroxynaphthalen-1-yl)-2-(((2R,7aS)-2-fluorotetrahydro-1H-pyrrolizin-7a(5H)-yl)methoxy)-5,6,7,8-tetrahydropyrido[3,4-d]pyrimidin-4-yl)-5,6,7,8-tetrahydro-4H-pyrazolo[1,5-a][1,4]diazepin-2-yl)(pyrrolidin-1-yl)methanone] | –
5 | – | 8300 | 9110 | 2660 | Oc1cc(N2CCc3c(nc(OC[C@@]45CCCN4C[C@H](F)C5)nc3N3CC4CC(O)CC3C4)C2)c2c(Cl)c(F)ccc2c1 (single isomer, unassigned) [Example 77] | IC50 [6]: ≥ 10000 nM
6 | – | – | – | – | CCc1c(F)ccc2cc(O)cc(N3CCc4c(nc(OC[C@@]56CCCN5C[C@H](F)C6)nc4N4CCC[C@@](C)(O)C4)C3)c12 [Example 2, (R)-1-(7-(8-ethyl-7-fluoro-3-hydroxynaphthalen-1-yl)-2-(((2R,7aS)-2-fluorohexahydro-1H-pyrrolizin-7a-yl)methoxy)-5,6,7,8-tetrahydropyrido[3,4-d]pyrimidin-4-yl)-3-methylpiperidin-3-ol] | IC50 [7]: ≤ 2 nM
7 | – | 1780 | 2070 | 468 | Oc1cc(N2CCc3c(nc(OC[C@@]45CCCN4C[C@H](F)C5)nc3N3CC4CC(O)CC3C4)C2)c2c(Cl)c(F)ccc2c1 (single isomer, unassigned) [Example 76] | –
8 | ≤ 2 | – | – | – | O=C1NC(=O)C2(CCCN(c3nc(OC[C@@]45CCCN4C[C@H](F)C5)nc4c3CCN(c3cc(O)cc5ccc(F)c(Cl)c35)C4)C2)N1 (stereo partly drawn) [Example 69, 7-(7-(8-chloro-7-fluoro-3-hydroxynaphthalen-1-yl)-2-(((2R,7aS)-2-fluorohexahydro-1H-pyrrolizin-7a-yl)methoxy)-5,6,7,8-tetrahydropyrido[3,4-d]pyrimidin-4-yl)-1,3,7-triazaspiro[4.5]decane-2,4-dione] | –
9 | ≤ 2 | – | – | – | CCc1c(F)ccc2cc(O)cc(N3CCc4c(nc(OC[C@@]56CCCN5C[C@H](F)C6)nc4N4CCCn5nc(C(=O)N(C)C)c(C)c5C4)C3)c12 [Example 189, 5-(7-(8-ethyl-7-fluoro-3-hydroxynaphthalen-1-yl)-2-(((2R,7aS)-2-fluorotetrahydro-1H-pyrrolizin-7a(5H)-yl)methoxy)-5,6,7,8-tetrahydropyrido[3,4-d]pyrimidin-4-yl)-N,N,3-trimethyl-5,6,7,8-tetrahydro-4H-pyrazolo[1,5-a][1,4]diazepine-2-carboxamide] | –
10 | ≤ 2 | – | – | – | CCc1c(F)ccc2cc(O)cc(N3CCc4c(nc(OCC5(CN(C)C)CC5)nc4N4CCCn5nc(C(=O)N(C)C)cc5C4)C3)c12 [Example 203, 5-(2-((1-((dimethylamino)methyl)cyclopropyl)methoxy)-7-(8-ethyl-7-fluoro-3-hydroxynaphthalen-1-yl)-5,6,7,8-tetrahydropyrido[3,4-d]pyrimidin-4-yl)-N,N-dimethyl-5,6,7,8-tetrahydro-4H-pyrazolo[1,5-a][1,4]diazepine-2-carboxamide] | –
11 | – | – | – | – | CCc1cccc2cccc(N3CCc4c(nc(OCC56CCCN5CCC6)nc4N4CCCC(P(C)(C)=O)C4)C3)c12 (stereo not shown) [Example 112, (1-(7-(8-ethylnaphthalen-1-yl)-2-((tetrahydro-1H-pyrrolizin-7a(5H)-yl)methoxy)-5,6,7,8-tetrahydropyrido[3,4-d]pyrimidin-4-yl)piperidin-3-yl)dimethylphosphine oxide] | IC50 [8]: 647 nM
12 | – | 7430 | ≥ 10000 | 1700 | Oc1cc(N2CCc3c(nc(OC[C@@]45CCCN4C[C@H](F)C5)nc3N3CC4CC(O)CC3C4)C2)c2c(Br)c(F)ccc2c1 (single isomer, unassigned) [Example 214] | IC50 [6]: ≥ 10000 nM
